Data from patent US20090005396A1, “Use of Pyrazolyl-Pyrimidine Derivatives in the Treatment of Pain” (ASTRAZENECA AB, priority 2005, published 2009).

What was measured:
human TrkB kinase = target: T1, human TrkB kinase (Homo sapiens, UniProt Q16620); experiment: TrkB kinase assay (HTRF); assay type: biochemical; conditions: intracellular domain of HIS-tagged human TrkB
T1 construct: The intracellular domain of a HIS-tagged human TrkB kinase; HIS; made in house; host or cells: SF9 insect cells
Experimental: TrkB kinase activity is being measured against its ability to phosphorylate synthetic tyrosine residues within a generic polypeptide substrate using homogenous time-resolved fluorescence (HTRF) technology. The intracellular domain of a HIS-tagged human TrkB kinase was expressed in SF9 cells and purified using standard nickel column chromatography. After the kinase is incubated with a biotinylated substrate and ATP for 50 minutes at room temperature, the kinase reaction is stopped by the addition of 60 mM EDTA. The reaction is performed in 384 well microtitre plates and reaction products are detected with the addition of strepavidin-linked and phosphotyrosine-specific antibodies using the Tecan Ultra Evolution Microplate Fluometer after an additional 3-hour incubation at room temperature.
(§1) When tested in the above in-vitro assay the Trk inhibitory activity of the following examples was measured at the following IC50s.

human TrkA kinase = target: T2, human TrkA kinase (Homo sapiens, UniProt P04629); experiment: TrkA kinase assay (AlphaScreen); assay type: biochemical; conditions: intracellular domain of His-tagged human TrkA, 20 μM ATP (=Km)
T2 construct: The intracellular domain of a His-tagged human TrkA kinase; His; made in house; host or cells: High Five insect cells
Experimental: TrkA kinase activity is measured in 384-well format using AlphaScreen technology. […] The intracellular domain of a His-tagged human TrkA kinase was expressed in High Five cells. The kinase was incubated with ATP and the biotinylated substrate for 15 minutes at room temperature. The reactions were then stopped by the addition of EDTA, anti-phosphotyrosine antibody (PT-100) coated acceptor beads and streptavidin coated donor beads. After 2 h of incubation in the dark at room temperature, the product was detected using a Fusion Alpha instrument. […] Termination/Detection conditions: 25 mM HEPES pH 7.4, 100 mM NaCl, 48 mM EDTA, 0.1% BSA and 20 μg/ml of donor and acceptor beads.
as §1

[1] = tested on: carrageenan monoarthritis; experiment: Rat carrageenan test (carrageenan monoarthritis, pain score); assay type: in vivo; conditions: oral, 80 μmol/kg
Experimental: The compounds used according to the invention when given by systemic administration to mice or rats, specifically reduce pain in the rat carrageenan test as described by Tonussi and Ferreira (Pain 1992, 48, 421-427).
Description of the Rat Carrageenan Test
Experimental procedures. Under isoflurane anesthesia, 40 μL of carrageenan (7.5 mg/mL) was injected into the left tibio-tarsal (ankle) joint from the dorsal side. The injection causes a localized inflammation increasing to a maximum between 4 h to 6 h after induction, after which it gradually decreases, and the animals display decreased weight bearing on and guarding of the limb.
(2R)-2-{[5-Chloro-4-(1H-pyrazol-5-ylamino)pyrimidin-2-yl]amino}-2-(4-fluorophenyl)ethanol was administered 30 min before induction of monoarthritis. The rats were placed in an acrylic chamber and videotaped for 5 min from underneath, 2 h, 2 h30, 3 h, 3 h30, 5 h after drug administration. Subsequently, the weight the rats were willing to put on the injected paw was scored as described in the table below, and defined as the “Pain Score”: […]
Data analysis. Two Way Repeated Measures ANOVA (one factor repetition) followed by Newmans-Keuls method for all pairwise multiple comparison procedures (SigmaStat® 2.03) was used to evaluate group effects. The level of significance was set at p<0.05.

[2] = tested on: mechanical hypersensitivity; conditions: injected into rats with pancreatite; cited from earlier work

T1 sequence (Q16620 455-822 limits assumed): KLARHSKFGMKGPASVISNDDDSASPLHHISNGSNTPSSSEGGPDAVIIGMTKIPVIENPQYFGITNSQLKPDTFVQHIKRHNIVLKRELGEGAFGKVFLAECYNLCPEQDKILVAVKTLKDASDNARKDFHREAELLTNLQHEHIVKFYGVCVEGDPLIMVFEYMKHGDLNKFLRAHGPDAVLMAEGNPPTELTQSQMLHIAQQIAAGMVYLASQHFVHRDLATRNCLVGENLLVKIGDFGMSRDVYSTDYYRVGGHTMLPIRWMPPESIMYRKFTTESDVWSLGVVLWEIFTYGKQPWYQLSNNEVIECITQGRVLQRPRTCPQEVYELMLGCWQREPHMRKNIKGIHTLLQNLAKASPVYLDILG
T2 sequence (P04629 440-796 limits assumed): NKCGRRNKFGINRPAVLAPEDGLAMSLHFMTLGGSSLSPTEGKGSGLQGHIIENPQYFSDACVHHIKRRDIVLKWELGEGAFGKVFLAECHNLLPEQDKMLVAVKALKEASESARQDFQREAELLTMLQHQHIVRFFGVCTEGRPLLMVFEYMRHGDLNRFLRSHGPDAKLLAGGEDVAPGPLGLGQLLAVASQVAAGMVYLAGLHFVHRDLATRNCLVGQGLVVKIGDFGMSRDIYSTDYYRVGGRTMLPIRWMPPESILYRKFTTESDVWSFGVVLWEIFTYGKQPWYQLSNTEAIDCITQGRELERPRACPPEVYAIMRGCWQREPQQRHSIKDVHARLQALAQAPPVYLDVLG

In the case of `C[C@H](Nc1ncc(Cl)c(Nc2cc(C3CC3)n[nH]2)n1)c1ccc(F)cc1` [5-Chloro-N^4-(5-cyclopropyl-1H-pyrazol-3-yl)-N^2-[(1S)-1-(4-fluorophenyl)ethyl]pyrimidine-2,4-diamine], the IC50 (human TrkB kinase) is reported as 140 nM and the IC50 (human TrkA kinase) is reported as 35 nM.

Work on `OC[C@H](Nc1ncc(F)c(Nc2cc(C3CC3)[nH]n2)n1)c1ccc(F)cc1` [(2R)-2-({4-[(5-Cyclopropyl-1H-pyrazol-3-yl)amino]-5-fluoropyrimidin-2-yl}amino)-2-(4-fluorophenyl)ethanol] yielded an IC50 (human TrkB kinase) of 260 nM and an IC50 (human TrkA kinase) of 75 nM.

For `OC[C@H](Nc1ncc(Cl)c(Nc2ccn[nH]2)n1)c1ccc(F)cc1` [(2R)-2-{[5-Chloro-4-(1H-pyrazol-5-ylamino)pyrimidin-2-yl]amino}-2-(4-fluorophenyl)ethanol], the signs of side-effects [1] was “did not show signs of side-effects” and the “pain score induced by carrageenan monoarthritis” value ([1]; given 30 min before induction, within 5 hours after administration, p<0.05) was “significantly reduced”.

For `OCC[C@H](Nc1ncc(Cl)c(Nc2cc(C3CC3)[nH]n2)n1)c1ccc(F)cc1` [(3S)-3-({4-[(5-Cyclopropyl-1H-pyrazol-3-yl)amino]-5-chloropyrimidin-2-yl}amino)-3-(4-fluorophenyl)propan-1-ol], the IC50 (human TrkB kinase) was 220 nM and the IC50 (human TrkA kinase) was 39 nM.

For `COC(=O)[C@@]1(O)C[C@H]2O[C@]1(C)n1c3ccccc3c3c4c(c5c6ccccc6n2c5c31)C(=O)NC4` [Compound K252a, K252a], the mechanical hypersensitivity [2] is listed as “could suppress mechanical hypersensitivity”.
